# Experimental data taken from patent US9725442B2, “Heterocyclic derivative having PGD2 receptor antagonist activity” (Shionogi & Co., Ltd., priority 2011, dated 2017).
# Where two headings read alike, the source gives them in different places.
# Legend:
# [1] = target: CRTH2 (Homo sapiens (Human), UniProt Q9Y5Y4); experiment: CRTH2 receptor binding inhibitory activity ([3H]-PGD2 displacement, membranes of CRTH2-expressing K562 cell); settings: [3H]-PGD2 displacement, membrane of CRTH2-expressing K562 cell, read-out: Ki
# Outline: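 Incubation ran 60 min at room temperature using 20 μg/well membrane from CRTH2-expressing K562 cells in pH 7.4 Tris/HCl (50 mM) with 10 mM MgCl2.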
# [2] = target: DP receptor (Homo sapiens (Human), UniProt Q13258); experiment: DP inhibitory activity in human platelets (PGD2-induced cAMP increase in platelet rich plasma, HTRF); assay type: cell-based; settings: IC50 of PGD2 (300 nM)-induced cAMP increase, read-out: PRP
# Description: Thirty milliliter of blood was drown from healthy human into a syringe preloaded with 1/9 volume of 3.8% citrate sodium. The blood was centrifuged with 180 g for 10 min at room temperature and the upper plasma layer was collected as platelet rich plasma (PRP). The PRP was transferred to plate and treated with 3-isobutyl-1-methylxanthin (IBMX; […]) for 5 min. Then the compounds of the present invention were added to the plate and after 10 min, 300 nM of PGD2 was added. The reaction was stopped with 1 mmol/l hydrogenchlolide after 2 min of PGD2 addition, and platelet was lysed by adding 12% Triton X-100. The concentration of cAMP in the supernatant of the platelet lysate was quantified using homogenous time resolved fluorescence (HTRF). Inhibition ratio was defined by cAMP increase with and without compound, and […] for each compound was calculated from inhibitory curve.
# [3] = target: Human DP1 receptor (Homo sapiens (Human), UniProt Q13258); experiment: Human DP1 inhibitory activity in DP1-expressing cell (PGD2-induced cAMP); assay type: cell-based
# Description: Compounds were categorized as AA (cAMP is less than 100 nM) and A (cAMP is more than 100 nM and less than 5000 nM) as shown in Table 99 and 100.
# [4] = CRTH2 receptor binding, categorized AAAA/AAA
# [5] = IC50 of PGD2 (60 nM)-induced cAMP increase, human DP1 receptor expressing Jurkut cell
# [6] = category of cAMP IC50, human DP1 receptor expressing Jurkut cell
# Sequence of CRTH2 (Q9Y5Y4 whole entry): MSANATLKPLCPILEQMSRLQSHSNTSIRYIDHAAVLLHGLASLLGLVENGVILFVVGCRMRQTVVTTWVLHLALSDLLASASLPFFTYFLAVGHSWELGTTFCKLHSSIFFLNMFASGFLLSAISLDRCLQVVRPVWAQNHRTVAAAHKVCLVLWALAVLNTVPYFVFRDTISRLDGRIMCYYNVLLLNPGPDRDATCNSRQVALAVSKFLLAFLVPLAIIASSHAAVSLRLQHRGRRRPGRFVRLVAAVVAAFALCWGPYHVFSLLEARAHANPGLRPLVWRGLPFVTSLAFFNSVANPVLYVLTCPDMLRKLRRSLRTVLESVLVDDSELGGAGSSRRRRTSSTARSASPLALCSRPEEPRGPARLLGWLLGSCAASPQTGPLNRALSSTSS
# Sequence of DP receptor (Q13258 whole entry): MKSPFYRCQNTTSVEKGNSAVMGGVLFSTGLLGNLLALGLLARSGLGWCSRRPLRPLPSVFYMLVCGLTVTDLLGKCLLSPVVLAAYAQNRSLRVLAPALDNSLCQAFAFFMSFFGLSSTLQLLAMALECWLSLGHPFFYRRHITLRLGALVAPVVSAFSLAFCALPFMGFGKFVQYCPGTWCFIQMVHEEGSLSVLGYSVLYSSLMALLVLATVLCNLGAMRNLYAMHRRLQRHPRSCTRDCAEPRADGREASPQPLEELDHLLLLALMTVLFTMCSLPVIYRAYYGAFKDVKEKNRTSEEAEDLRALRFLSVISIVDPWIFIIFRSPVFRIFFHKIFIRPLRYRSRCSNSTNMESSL
# Sequence of Human DP1 receptor (Q13258 whole entry): as above
Compound,"Ki [1, 4] [nM]",Ki [1] [nM],IC50 [2] [nM],"IC50 [3, 5] [nM]","IC50 [3, 6] [nM]"
CO/N=C/[C@H]1C[C@@H](n2nc(CC(=O)O)c3ccc(F)cc32)CN1S(=O)(=O)c1ccc(OC(C)C)cc1 [Compound I-19],< 100,62,260,56,< 100
CC(C)Oc1ccc(S(=O)(=O)N2C[C@H](n3nc(CC(=O)O)c4ccc(F)cc43)C[C@@H]2Cn2cccn2)cc1 [Compound I-21],< 100,10,180,59,< 100
C[C@@H]1CN(S(=O)(=O)c2ccc(OC(F)(F)F)cc2)C[C@@H]1n1nc(CC(=O)O)c2ccc(Cl)cc21 [Compound I-142],< 100,11,92,9.9,< 100
CC(C)Oc1ccc(S(=O)(=O)N2C[C@@H](C)[C@@H](n3cc(CC(=O)O)c4ccc(F)cc43)C2)cc1 [Compound I-144],< 100,3.1,82,4.7,< 100
CCOc1ccc(S(=O)(=O)N2C[C@@H](C)[C@@H](n3nc(CC(=O)O)c4ccccc43)C2)c([N+](=O)[O-])c1 [Compound I-324],< 100,,,,< 100
CC#CCOC[C@H]1C[C@@H](n2nc(CC(=O)O)c3ccc(F)cc32)CN1S(=O)(=O)c1ccc(OC(C)C)cc1 [Compound I-326],100 to 5000,,,,100 to 5000
CCCOC[C@H]1C[C@@H](n2nc(CC(=O)O)c3ccc(F)cc32)CN1S(=O)(=O)c1ccc(OC(C)C)cc1 [Compound I-327],100 to 5000,,,,100 to 5000
CCOc1ccc(S(=O)(=O)N2C[C@@H](C)[C@@H](n3cc(CC(=O)O)c4ccc(-c5cnn(C)c5)cc43)C2)cc1 [Compound I-328],100 to 5000,,,,100 to 5000
CCOc1ccc(S(=O)(=O)N2C[C@@H](C)[C@@H](n3c(C)c(CC(=O)O)c4ccccc43)C2)cn1 [Compound I-330],< 100,,,,< 100
CCOc1ccc(S(=O)(=O)N2C[C@H](n3nc(CC(=O)O)c4ccc(F)cc43)C(C)(C)C2)cc1 [Compound I-331],< 100,,,,< 100
CCOc1ccc(S(=O)(=O)N2C[C@H](n3nc(CC(=O)O)c4ccccc43)[C@H](C)[C@H]2C#N)cc1 [Compound I-332],< 100,,,,100 to 5000
CCOc1ccc(S(=O)(=O)N2C[C@H](n3nc(CC(=O)O)c4ccccc43)[C@H](C)[C@@H]2C#N)cc1 [Compound I-333],< 100,,,,< 100
CC(C)Oc1ccc(S(=O)(=O)N2C[C@H](n3nc(CC(=O)O)c4ccc(F)cc43)C[C@@H]2COc2nc3ccccc3s2)cc1 [Compound I-334],100 to 5000,,,,< 100
CCOc1ccc(S(=O)(=O)N2C[C@@H](C)[C@@H](n3nc(C(F)C(=O)O)c4ccccc43)C2)cc1 (some centres unmarked) [Compound I-338],100 to 5000,,,,< 100
CCOc1ccc(S(=O)(=O)N2C[C@@H](C)[C@@H](n3nc(Cc4cc(O)no4)c4ccccc43)C2)cc1 [Compound I-341],100 to 5000,,,,100 to 5000
CC(C)Oc1ccc(S(=O)(=O)N2C[C@H](n3nc(CC(=O)O)c4ccc(F)cc43)C[C@@H]2COCCCO)cc1 [Compound I-342],100 to 5000,,,,100 to 5000
CC(C)Oc1ccc(S(=O)(=O)N2C[C@H](n3nc(CC(=O)O)c4ccc(F)cc43)C[C@@H]2CCc2ccccc2)cc1 [Compound I-343],< 100,,,,< 100
COc1ccccc1OC[C@H]1C[C@@H](n2nc(CC(=O)O)c3ccc(F)cc32)CN1S(=O)(=O)c1ccc(OC(C)C)cc1 [Compound I-344],100 to 5000,,,,< 100
CC(C)Oc1ccc(S(=O)(=O)N2C[C@H](n3nc(CC(=O)O)c4ccc(F)cc43)CC2c2cccnc2)cc1 (some centres unmarked) [Compound I-345],100 to 5000,,,,100 to 5000
CC(C)Oc1ccc(S(=O)(=O)N2C[C@H](n3nc(CC(=O)O)c4ccc(F)cc43)C[C@@H]2COc2cccc(O)c2)cc1 [Compound I-346],< 100,,,,< 100
CC(C)Oc1ccc(S(=O)(=O)N2C[C@H](n3nc(CC(=O)O)c4ccc(F)cc43)C[C@@H]2COc2ccc(O)cc2)cc1 [Compound I-347],100 to 5000,,,,< 100

# The remaining lines, values ahead:
"Ki [1, 4] [nM]",Ki [1] [nM],IC50 [2] [nM],"IC50 [3, 5] [nM]","IC50 [3, 6] [nM]",Compound
< 100,,,,< 100,CC(C)Oc1ccc(S(=O)(=O)N2C[C@H](n3nc(CC(=O)O)c4ccc(F)cc43)C[C@@H]2Cc2ccccc2)cc1 [Compound I-348]
100 to 5000,,,,< 100,CC(C)Oc1ccc(S(=O)(=O)N2C[C@H](n3nc(CC(=O)O)c4ccccc43)C[C@@H]2Cc2ccccc2)cc1 [Compound I-349]
< 100,,,,100 to 5000,CC(C)Oc1ccc(S(=O)(=O)N2C[C@H](n3nc(CC(=O)O)c4ccc(F)cc43)C[C@H]2c2ccccn2)cc1 [Compound I-350]
100 to 5000,,,,100 to 5000,CC(C)Oc1ccc(S(=O)(=O)N2C[C@H](n3nc(CC(=O)O)c4ccc(F)cc43)C[C@@H]2c2ccccn2)cc1 [Compound I-351]
100 to 5000,,,,100 to 5000,CCOc1ccc(S(=O)(=O)N2C[C@H](n3nc(CC(=O)O)c4ccccc43)C[C@@H]2CC2COC2)cc1 [Compound I-352]
100 to 5000,,,,< 100,CSC[C@H]1C[C@@H](n2nc(CC(=O)O)c3ccc(F)cc32)CN1S(=O)(=O)c1ccc(OC(C)C)cc1 [Compound I-354]
100 to 5000,,,,100 to 5000,CC(C)Oc1ccc(S(=O)(=O)N2C[C@H](n3nc(CC(=O)O)c4ccc(F)cc43)C[C@@H]2CS(C)(=O)=O)cc1 [Compound I-355]
< 100,,,,100 to 5000,CCOc1ccc(S(=O)(=O)N2C[C@H](n3nc(CC(=O)O)c4ccccc43)C(C)(C)C2)cc1 [Compound I-356]
100 to 5000,,,,100 to 5000,CC(C)Oc1ccc(S(=O)(=O)N2C[C@H](n3nc(CC(=O)O)c4ccc(F)cc43)C[C@H]2c2ccccn2)cc1 [Compound I-357]
100 to 5000,,,,100 to 5000,CC(C)Oc1ccc(S(=O)(=O)N2C[C@H](n3nc(CC(=O)O)c4ccc(F)cc43)C[C@@H]2c2ccccn2)cc1 [Compound I-358]
< 100,,,,100 to 5000,CC(C)Oc1ccc(S(=O)(=O)N2C[C@H](n3nc(CC(=O)O)c4ccc(F)cc43)C[C@H]2c2ccccc2)cc1 [Compound I-359]
< 100,30,,,< 100,CC(C)Oc1ccc(S(=O)(=O)N2C[C@H](n3nc(CC(=O)O)c4ccc(F)cc43)C[C@@H]2c2ccccc2)cc1 [Compound I-360]
100 to 5000,,,,100 to 5000,CC(C)Oc1ccc(S(=O)(=O)N2C[C@H](n3nc(CC(=O)O)c4ccc(F)cc43)C[C@@H]2c2ccncc2)cc1 [Compound I-361]
100 to 5000,,,,100 to 5000,CC(C)Oc1ccc(S(=O)(=O)N2C[C@H](n3nc(CC(=O)O)c4ccc(F)cc43)C[C@H]2c2ccncc2)cc1 [Compound I-362]
100 to 5000,170,,,100 to 5000,CC(C)Oc1ccc(S(=O)(=O)N2C[C@H](n3nc(CC(=O)O)c4ccc(F)cc43)C[C@@H]2c2ncc[nH]2)cc1 [Compound I-363]
100 to 5000,,,,100 to 5000,Cc1noc([C@H]2C[C@@H](n3nc(CC(=O)O)c4ccc(F)cc43)CN2S(=O)(=O)c2ccc(OC(C)C)cc2)n1 [Compound I-364]
100 to 5000,,,,< 100,CC(C)Oc1ccc(S(=O)(=O)N2C[C@H](n3nc(CC(=O)O)c4ccc(F)cc43)C[C@@H]2COc2ccccc2)cc1 [Compound I-365]
100 to 5000,,,,< 100,CC(C)Oc1ccc(S(=O)(=O)N2C[C@H](n3nc(CC(=O)O)c4ccc(F)cc43)C[C@@H]2COc2ccc(F)cc2)cc1 [Compound I-366]
